In patent US11339130B1 (Blade Therapeutics, Inc., priority 2016, dated 2022):

Tests used:
[1] = target: T1, Human Calpain 1/NS1 (Homo sapiens, UniProt P07384); assay: Calpain inhibition continuous fluorescence (FRET) assay, Human Calpain 1/NS1; type: biochemical; conditions: read-out: Human Calpain 1/NS1 IC50
T1 sequence (P07384 1-714): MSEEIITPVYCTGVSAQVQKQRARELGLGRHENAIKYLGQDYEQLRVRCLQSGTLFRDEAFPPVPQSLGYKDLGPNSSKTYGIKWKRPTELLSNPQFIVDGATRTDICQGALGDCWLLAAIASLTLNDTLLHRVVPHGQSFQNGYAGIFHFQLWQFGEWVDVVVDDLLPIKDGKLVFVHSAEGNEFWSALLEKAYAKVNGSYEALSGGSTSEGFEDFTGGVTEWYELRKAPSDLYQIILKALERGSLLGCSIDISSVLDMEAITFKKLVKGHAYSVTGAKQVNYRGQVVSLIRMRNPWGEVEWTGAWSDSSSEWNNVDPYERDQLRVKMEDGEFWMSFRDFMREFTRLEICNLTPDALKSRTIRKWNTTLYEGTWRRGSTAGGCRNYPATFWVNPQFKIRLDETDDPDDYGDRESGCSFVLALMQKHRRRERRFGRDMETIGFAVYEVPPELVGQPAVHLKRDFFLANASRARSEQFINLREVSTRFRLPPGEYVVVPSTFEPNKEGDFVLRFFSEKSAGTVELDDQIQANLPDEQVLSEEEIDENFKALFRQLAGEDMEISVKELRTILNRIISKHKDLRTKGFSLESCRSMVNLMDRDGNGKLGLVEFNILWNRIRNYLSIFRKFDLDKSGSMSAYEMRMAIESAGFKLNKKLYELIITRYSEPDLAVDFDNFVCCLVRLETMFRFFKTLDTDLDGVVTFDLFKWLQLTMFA
T1 sequence (P04632 1-268 partner): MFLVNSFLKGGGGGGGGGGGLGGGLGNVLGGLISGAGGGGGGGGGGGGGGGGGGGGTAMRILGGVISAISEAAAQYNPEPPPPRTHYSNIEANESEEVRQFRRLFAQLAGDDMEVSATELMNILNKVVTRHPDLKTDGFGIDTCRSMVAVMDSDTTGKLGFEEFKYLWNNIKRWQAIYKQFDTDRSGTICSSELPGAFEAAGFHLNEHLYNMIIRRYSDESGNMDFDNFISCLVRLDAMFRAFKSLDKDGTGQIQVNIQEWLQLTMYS
Summary of the method: (§1)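 Continuous FRET read (ex 490/em 520 nm, 10 min) of calpain 1, 2 or 9 cleaving an internally quenched 5-FAM peptide, triggered by substrate with CaCl2 after enzyme–inhibitor incubation at ambient 25 °C, pH 7.5 Tris/NaCl/DTT buffer. IC50 from initial rates (1-5 min) via 4-parameter fit.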

[2] = target: T2, Human Calpain 2/NS1 (Homo sapiens, UniProt P17655); assay: Calpain inhibition continuous fluorescence (FRET) assay, Human Calpain 2/NS1; type: biochemical; conditions: read-out: Human Calpain 2/NS1 IC50
T2 sequence (P17655 1-700): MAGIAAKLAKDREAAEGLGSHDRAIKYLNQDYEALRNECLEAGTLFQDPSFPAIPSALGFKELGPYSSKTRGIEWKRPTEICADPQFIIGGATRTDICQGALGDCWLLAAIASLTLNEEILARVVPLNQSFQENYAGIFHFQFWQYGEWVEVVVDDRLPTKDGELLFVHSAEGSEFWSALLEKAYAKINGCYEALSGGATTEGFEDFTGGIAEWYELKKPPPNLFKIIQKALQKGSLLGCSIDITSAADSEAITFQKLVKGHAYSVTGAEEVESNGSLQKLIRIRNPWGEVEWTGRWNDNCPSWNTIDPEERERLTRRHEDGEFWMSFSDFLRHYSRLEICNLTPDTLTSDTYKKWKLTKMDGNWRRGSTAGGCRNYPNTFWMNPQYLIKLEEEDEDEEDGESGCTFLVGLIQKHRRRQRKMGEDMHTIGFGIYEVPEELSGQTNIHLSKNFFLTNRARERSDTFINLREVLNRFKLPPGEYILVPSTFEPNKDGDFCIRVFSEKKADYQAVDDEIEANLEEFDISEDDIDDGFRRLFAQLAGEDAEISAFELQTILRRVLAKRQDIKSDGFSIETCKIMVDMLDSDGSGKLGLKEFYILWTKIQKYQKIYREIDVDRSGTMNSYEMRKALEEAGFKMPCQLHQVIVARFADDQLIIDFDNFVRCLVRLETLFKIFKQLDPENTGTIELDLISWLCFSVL
T2 sequence (P04632 1-268 partner): T1 sequence (P04632 1-268 partner)
Summary of the method: as §1

[3] = target: T3, Human Calpain 9/NS1 (Homo sapiens, UniProt O14815); assay: Calpain inhibition continuous fluorescence (FRET) assay, Human Calpain 9/NS1; type: biochemical; conditions: read-out: Human Calpain 9/NS1 IC50
T3 sequence (O14815 1-690): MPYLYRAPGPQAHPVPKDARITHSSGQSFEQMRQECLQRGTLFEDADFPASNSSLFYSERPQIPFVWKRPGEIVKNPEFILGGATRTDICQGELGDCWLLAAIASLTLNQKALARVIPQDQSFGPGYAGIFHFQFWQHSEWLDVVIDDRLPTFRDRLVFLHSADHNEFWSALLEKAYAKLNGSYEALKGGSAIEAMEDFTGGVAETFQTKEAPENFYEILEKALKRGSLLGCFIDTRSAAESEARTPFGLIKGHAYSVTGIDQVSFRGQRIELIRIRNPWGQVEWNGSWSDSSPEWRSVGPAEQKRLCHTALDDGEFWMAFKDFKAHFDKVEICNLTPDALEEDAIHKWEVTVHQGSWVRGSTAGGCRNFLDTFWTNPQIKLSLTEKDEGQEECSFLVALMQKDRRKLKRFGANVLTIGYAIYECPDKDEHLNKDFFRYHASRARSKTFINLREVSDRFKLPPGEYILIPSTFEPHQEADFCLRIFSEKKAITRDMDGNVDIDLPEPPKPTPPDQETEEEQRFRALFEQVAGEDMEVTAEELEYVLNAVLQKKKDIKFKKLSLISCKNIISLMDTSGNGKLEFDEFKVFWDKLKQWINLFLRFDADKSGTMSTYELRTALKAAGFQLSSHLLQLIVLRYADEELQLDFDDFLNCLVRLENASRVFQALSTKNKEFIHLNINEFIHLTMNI
T3 sequence (P04632 1-268 partner): T1 sequence (P04632 1-268 partner)
Summary of the method: as §1

[4] = system: Calpain activity in SH-SY5Y cells (SBDP-150); assay: SH-SY5Y Spectrin western blot assay (SBDP-150 breakdown product, A23187-induced); type: cell-based; conditions: Homo sapiens; SH-SY5Y cells, A23187-induced SBDP-150, western blot; read-out: SH-SY5Y Spectrin IC50
[5] = system: Calpain activity in SH-SY5Y cells; assay: SH-SY5Y + AMC fluorescence assay (Suc-LLVY-AMC substrate); type: cell-based; conditions: read-out: SH-SY5Y + AMC IC50

Row | Structure (SMILES) | IC50 [1] [µM] | IC50 [2] [µM] | IC50 [3] [µM] | IC50 [4] [µM] | IC50 [5] [µM]
1 | NC(=O)C(=O)C(Cc1ccccc1)NC(=O)c1cn(C(F)F)nc1-c1cncc2ccccc12 (stereo not drawn) [Compound 561, N-(4-amino-3,4-dioxo-1-phenylbutan-2-yl)-1-(difluoromethyl)-3-(isoquinolin-4-yl)-1H-pyrazole-4-carboxamide] | < 3 | < 3 | < 3 | 10 to 25 | 10 to 25
2 | CC#Cc1nn(-c2ccccc2)cc1C(=O)NC(Cc1ccccc1)C(=O)C(N)=O (stereo not drawn) [Compound 562, N-(4-amino-3,4-dioxo-1-phenylbutan-2-yl)-1-phenyl-3-(prop-1-yn-1-yl)-1H-pyrazole-4-carb oxamide] | > 10 | > 10 | > 10 | > 25 | < 10
3 | NC(=O)C(=O)C(Cc1ccccc1)NC(=O)c1cn(C(F)F)nc1-c1cccc2c1OCO2 (stereo not drawn) [Compound 563, N-(4-amino-3,4-dioxo-1-phenylbutan-2-yl)-3-(benzo[d][1,3]dioxol-4-yl)-1-(difluoromethyl)-1H-pyrazole-4-carboxamide] | < 3 | < 3 | < 3 | < 10 | < 10
4 | Cc1ccc(F)c(-c2nn(C(F)F)cc2C(=O)NC(Cc2ccccc2)C(=O)C(N)=O)c1 (stereo not drawn) [Compound 564, N-(4-amino-3,4-dioxo-1-phenylbutan-2-yl)-1-(difluoromethyl)-3-(2-fluoro-5-methylphenyl)-1H-pyrazole-4-carboxamide] | < 3 | < 3 | < 3 | < 10 | < 10
5 | Cc1cc(C)cc(-c2nn(C(F)F)cc2C(=O)NC(Cc2ccccc2)C(=O)C(N)=O)c1 (stereo not drawn) [Compound 565, N-(4-amino-3,4-dioxo-1-phenylbutan-2-yl)-1-(difluoromethyl)-3-(3,5-dimethylphenyl)-1H-pyrazole-4-carboxamide] | < 3 | < 3 | < 3 | < 10 | > 25
6 | Cc1ccc(F)cc1-c1nn(C(F)F)cc1C(=O)NC(Cc1ccccc1)C(=O)C(N)=O (stereo not drawn) [Compound 566, N-(4-amino-3,4-dioxo-1-phenylbutan-2-yl)-1-(difluoromethyl)-3-(5-fluoro-2-methylphenyl)-1H-pyrazole-4-carboxamide] | < 3 | < 3 | < 3 | 10 to 25 | < 10
7 | Cn1cc(C(=O)NC(Cc2ccccc2)C(=O)C(N)=O)c(-c2ccc3c(c2)OCO3)n1 (stereo not drawn) [Compound 567, N-(4-amino-3,4-dioxo-1-phenylbutan-2-yl)-3-(benzo[d][1,3]dioxol-5-yl)-1-methyl-1H-pyrazole-4-carboxamide] | < 3 | < 3 | < 3 | < 10 | < 10
8 | Cn1cc(C(=O)NC(Cc2ccccc2)C(=O)C(N)=O)c(-c2ccnn2C)n1 (stereo not drawn) [Compound 568, N-(4-amino-3,4-dioxo-1-phenylbutan-2-yl)-1,2′-dimethyl-1H,2′H-[3,3′-bipyrazole]-4-carboxamide] | < 3 | < 3 | < 3 | > 25 | < 10
9 | Cn1cc(C(=O)NC(Cc2ccccc2)C(=O)C(N)=O)c(-c2cccc3ccccc23)n1 (stereo not drawn) [Compound 569, N-(4-amino-3,4-dioxo-1-phenylbutan-2-yl)-1-methyl-3-(naphthalen-1-yl)-1H-pyrazole-4-carboxamide] | < 3 | < 3 | < 3 | > 25 | 10 to 25
10 | Cn1cc(C(=O)NC(Cc2ccccc2)C(=O)C(N)=O)c(-c2cccc3c2OCCO3)n1 (stereo not drawn) [Compound 570, N-(4-amino-3,4-dioxo-1-phenylbutan-2-yl)-3-(2,3-dihydrobenzo[b][1,4]dioxin-5-yl)-1-methyl-1H-pyrazole-4-carboxamide] | < 3 | < 3 | < 3 | > 25 | > 25
11 | Cn1cc(C(=O)NC(Cc2ccccc2)C(=O)C(N)=O)c(-c2ccc3ccccc3c2)n1 (stereo not drawn) [Compound 571, N-(4-amino-3,4-dioxo-1-phenylbutan-2-yl)-1-methyl-3-(naphthalen-2-yl)-1H-pyrazole-4-carboxamide] | < 3 | < 3 | < 3 | > 25 | > 25
12 | Cn1cc(C(=O)NC(Cc2ccccc2)C(=O)C(N)=O)c(-c2ccccc2C(F)F)n1 (stereo not drawn) [Compound 572, N-(4-amino-3,4-dioxo-1-phenylbutan-2-yl)-3-(2-(difluoromethyl)phenyl)-1-methyl-1H-pyrazole-4-carboxamide] | < 3 | < 3 | < 3 | > 25 | < 10
13 | Cn1cc(C(=O)NC(Cc2ccccc2)C(=O)C(N)=O)c(C2CCCCC2)n1 (stereo not drawn) [Compound 573, N-(4-amino-3,4-dioxo-1-phenylbutan-2-yl)-3-cyclohexyl-1-methyl-1H-pyrazole-4-carboxamide] | < 3 | < 3 | < 3 | > 25 | < 10
14 | C#CC[C@H](NC(=O)c1cn(C)nc1-c1ccccc1F)C(=O)C(N)=O [Compound 574, (S)—N-(1-amino-1,2-dioxohex-5-yn-3-yl)-3-(2-fluorophenyl)-1-methyl-1H-pyrazole-4-carboxamide] | < 3 | < 3 | < 3 | > 25 | > 25
15 | NC(=O)C(=O)C(Cc1ccccc1)NC(=O)c1cn(C(F)F)nc1-c1ccc2cccnc2c1 (stereo not drawn) [Compound 575, N-(4-amino-3,4-dioxo-1-phenylbutan-2-yl)-1-(difluoromethyl)-3-(quinolin-7-yl)-1H-pyrazole-4-carboxamide] | < 3 | < 3 | < 3 | < 10 | > 25
